Reference: patent US8629301B2, “Process for the purification of benzphetamine hydrochloride” (Mallinckrodt LLC, priority 2004, dated 2014)

Assay: partition between organic layer (toluene) and aqueous layer at adjusted pH
Conditions: for logD hydrocarbon water: toluene/water

Compound	partition coefficient (ratio of equilibrium concentration in the organic layer to that in the aqueous layer) (pH 4)	partition coefficient (ratio of equilibrium concentration in the organic layer to that in the aqueous layer) (pH 8)	partition coefficient (ratio of equilibrium concentration in the organic layer to that in the aqueous layer) (pH 10)	logD hydrocarbon water (pH 6)	partition coefficient (ratio of equilibrium concentration in the organic layer to that in the aqueous layer) (pH 6)	logD hydrocarbon water (pH 10)
C[C@@H](Cc1ccccc1)N(C)Cc1ccccc1 [Benzphetamine, d-N-methyl-N-benzyl-beta-phenylisopropylamine]	0.600	∞	∞	1.87		
CN[C@@H](C)Cc1ccccc1 [Methamphetamine, methamphetamine]	0.015	0.124			0.000	0.527
